In patent publication US20100113460A1, “Organic Compounds” (Givaudan SA, priority 2007, published 2010):

Tests used:
[1] = biological target: T1, CYP2A13 (Homo sapiens, UniProt Q16696); assay: CYP2A13 inhibition, coumarin to 7-hydroxy-coumarin (Umbelliferone) fluorescence assay in microsomes
T1 sequence (Q16696 1-494): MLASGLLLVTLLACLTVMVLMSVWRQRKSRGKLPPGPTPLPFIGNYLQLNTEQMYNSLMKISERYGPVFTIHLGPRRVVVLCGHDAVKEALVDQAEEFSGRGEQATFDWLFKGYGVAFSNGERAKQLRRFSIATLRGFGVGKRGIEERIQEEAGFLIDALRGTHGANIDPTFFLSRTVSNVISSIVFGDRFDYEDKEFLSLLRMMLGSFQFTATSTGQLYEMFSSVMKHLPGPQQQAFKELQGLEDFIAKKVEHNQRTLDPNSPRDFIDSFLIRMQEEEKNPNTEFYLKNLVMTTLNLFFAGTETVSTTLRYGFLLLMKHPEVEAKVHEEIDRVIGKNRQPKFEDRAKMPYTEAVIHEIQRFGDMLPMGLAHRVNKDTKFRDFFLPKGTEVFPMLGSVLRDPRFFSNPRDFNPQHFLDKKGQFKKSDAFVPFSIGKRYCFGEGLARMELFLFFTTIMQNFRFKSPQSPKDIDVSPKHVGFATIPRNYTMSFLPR
Protocol: Compounds that inhibit the activity of CYP2A13 are identified by using a standard reaction established for the enzyme. A known substrate is coumarin, and the product of the enzymatic reaction is 7-hydroxy-coumarin (Umbelliferone) which is strongly fluorescent. When a compound is added to the standard reaction and the formation of Umbelliferone is decreased, the compound is identified as an inhibitor, which can also be a competitive substrate of the enzyme. The compound is used at various concentrations and the concentration-dependent decrease in Umbelliferone formation allows to determine the concentration where the activity of the enzyme is reduced to the 50% level (IC50 value).
A test compound (details see Table 1) was incubated with CYP2A13 in the presence of a cytochrome P450 reductase. CYP2A13 and P450 reductase were employed in form of microsomes. […] Preferably, the two enzymes are coexpressed in the same insect cells and microsomes prepared which contain both enzymes. […] An MOI of 4 for recombinant CYP2A13 baculovirus combined with an MOI of 3.5 for recombinant P450 reductase baculovirus routinely produced microsomes with considerable activity.
Microsomes were used which contained 7 pmoles CYP2A13. […] The concentration of the standard substrate coumarin was 0.006 mM. […] The mixture was incubated for 10 min at 37° C. prior to the initiation of the enzymatic reaction by the addition of 0.005 ml of a solution of 50 mM NADPH in water. The final total volume was 0.2 ml, which is suitable for microtiter plate measurements. The samples were incubated for 60 min at 37° C. After 60 min, the enzymatic reaction was stopped by the addition of 0.02 ml cold 50% trichloroacetic acid (TCA) and incubated at 4° C. for 15 min. 0.005 ml of a solution of 50 mM NADPH in water was added to the control reaction which corresponds to the reaction without test compound and without NADPH, and as a consequence, no Umbelliferone was formed. Denatured proteins and other insoluble parts were separated by centrifugation (10 min, 560×g, room-temperature).
The samples were analysed spectrofluorometrically which allows to detect the formation of Umbelliferone as the enzymatic product of coumarin at an excitation wavelength of 340 nm and an emission wavelength of 480 nm.

[2] = biological target: T2, CYP2A6 (Homo sapiens, UniProt P11509); assay: CYP2A6 inhibition, coumarin to Umbelliferone fluorescence assay in microsomes; type: biochemical; conditions: substrate coumarin 0.003 mM, 60 min at 37° C.; read-out: CYP2A6 inhibitor activity IC50
T2 construct: purchased BD Biosciences Gentest, USA
T2 sequence (P11509 1-494): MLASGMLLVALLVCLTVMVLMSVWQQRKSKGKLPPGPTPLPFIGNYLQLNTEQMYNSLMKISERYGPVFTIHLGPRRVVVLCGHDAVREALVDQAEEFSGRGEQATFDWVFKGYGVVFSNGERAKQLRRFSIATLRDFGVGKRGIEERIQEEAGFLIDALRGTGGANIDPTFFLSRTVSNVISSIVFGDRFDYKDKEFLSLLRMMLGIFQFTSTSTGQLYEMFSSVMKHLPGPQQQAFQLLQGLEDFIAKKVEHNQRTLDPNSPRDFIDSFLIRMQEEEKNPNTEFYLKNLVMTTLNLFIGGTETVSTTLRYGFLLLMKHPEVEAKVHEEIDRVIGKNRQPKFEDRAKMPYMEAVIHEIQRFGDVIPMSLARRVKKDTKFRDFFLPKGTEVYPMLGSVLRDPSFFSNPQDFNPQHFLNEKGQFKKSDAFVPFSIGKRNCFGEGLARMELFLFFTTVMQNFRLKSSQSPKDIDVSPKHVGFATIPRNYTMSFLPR
Protocol: Test compounds that inhibit the activity of CYP2A6 are identified by using the same principle as described in Example 28, first paragraph.
A test compound (details see list below) was incubated with CYP2A6 in the presence of a cytochrome P450 reductase. CYP2A6 and P450 reductase were employed in form of microsomes (BD Biosciences Gentest, USA). Microsomes were used which contained 2 pmoles CYP2A6 and an amount of NADPH-P450 reductase corresponding to cytochrome c reductase activity of 87 nmole/(min×mg protein). […] The concentration of the standard substrate coumarin was 0.003 mM.
The samples were analysed spectrofluorometrically according to the procedure described in Example 28.

[3] = biological target: T3, Human CYP2B6 (Homo sapiens, UniProt P20813); assay: Inhibition of human CYP2B6, 7-ethoxy-4-trifluoromethyl-coumarin fluorescence assay in microsomes; type: biochemical; conditions: substrate 7-ethoxy-4-trifluoromethyl-coumarin 6 μM, 40 min at 37° C.; read-out: CYP2B6 inhibitor activity IC50
T3 construct: made in house; host or cells: Sf9 insect cells, recombinant baculoviruses (coexpression)
T3 sequence (P20813 1-491): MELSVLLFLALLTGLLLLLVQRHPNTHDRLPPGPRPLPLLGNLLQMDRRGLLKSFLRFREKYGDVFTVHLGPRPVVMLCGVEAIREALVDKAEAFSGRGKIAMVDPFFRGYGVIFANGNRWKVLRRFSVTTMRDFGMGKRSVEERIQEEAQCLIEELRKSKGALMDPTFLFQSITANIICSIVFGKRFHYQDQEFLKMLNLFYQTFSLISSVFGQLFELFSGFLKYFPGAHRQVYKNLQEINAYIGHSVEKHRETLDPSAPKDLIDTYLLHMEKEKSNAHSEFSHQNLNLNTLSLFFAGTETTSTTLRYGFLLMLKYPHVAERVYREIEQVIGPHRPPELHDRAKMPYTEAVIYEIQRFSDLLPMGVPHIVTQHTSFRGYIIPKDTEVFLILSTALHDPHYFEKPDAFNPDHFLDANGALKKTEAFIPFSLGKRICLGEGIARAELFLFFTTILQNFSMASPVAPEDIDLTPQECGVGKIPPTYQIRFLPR
Protocol: Test compounds that inhibit the activity of CYP2B6 are identified by using the same principle as described in Example 28, first paragraph.
A test compound (details see Table 3) was incubated with CYP2B6 in the presence of a cytochrome P450 reductase. CYP2B6 and P450 reductase are produced using recombinant baculoviruses and co-expressing the two proteins in Sf9 insect cells as described in Example 28. Alternatively, microsomes containing CYP2B6 and the reductase are commercially available (BD Biosciences Gentest, USA). Microsomes were used which contained 1.5 pmoles CYP2B6. Potassium phosphate buffer final concentration was 100 mM, (1M stock, pH 7.4). […] The concentration of the standard substrate 7-ethoxy-4-trifluoromethyl-coumarin was 6 μM. […] The samples were incubated for 40 min at 37° C.

| IC50 [1] | IC50 [2] | IC50 [3] | SMILES |
| --- | --- | --- | --- |
| 0.3 µM | 9 µM | 2.7 µM | c1ncc2c(n1)CCCCCCCCCC2 [Compound ID 1, 5,6,7,8,9,10,11,12,13,14-decahydrocyclododeca[d]pyrimidine] |
| 2 µM | 53 µM | 5.4 µM | c1nc2c(o1)CCCCCCCCCC2 [Compound ID 15, 4,5,6,7,8,9,10,11,12,13-decahydrocyclododeca[d]oxazole] |
| 3.4 µM | 7 µM | 2.2 µM | CC/C=C\CCn1ccnc1 [Compound ID 23, (Z)-1-(hex-3-enyl)-1H-imidazole] |
| 6.4 µM | 6 µM | 0.1 µM | CC(C)=CCC/C(C)=C\Cn1ccnc1 [Compound ID 44, 1-(3,7-dimethylocta-2,6-dienyl)-1H-imidazole] |
| 10.2 µM | – | 0.6 µM | C=CCCCCCc1cnccn1 [Compound ID 57, 2-(hept-6-enyl)pyrazine] |

| SMILES | IC50 [1] | IC50 [2] | IC50 [3] |
| --- | --- | --- | --- |
| C=CCCCCn1ccnc1 [Compound ID 41, 1-(hex-5-enyl)-1H-imidazole] | 5.9 µM | – | 1.9 µM |
